Assay results: US8492414B2, “Antibacterial agents” (Biota Scientific Management Pty Ltd, priority 2007, dated 2013)
In brackets after ≈: the same amount, converted by molar mass.

System: Staphylococcus aureus ATCC29213
Assay: Minimum Inhibitory Concentration (MIC) testing, broth microdilution or agar dilution
Type: cell-based
Settings: MIC scored A/B/C, read-out: Staphylococcus aureus MICs, Activity
Experimental: Minimum Inhibitory Concentration (MIC) Testing Compounds of this invention were tested for antimicrobial activity by susceptibility testing in liquid or on solid media. […] Activities were scored as ‘A’ if the MIC was ≦[…] micrograms/ml, ‘B’ if the MIC was 0.25 to 4 micrograms/ml and ‘C’ if the MIC was greater than 4 micrograms/ml.

NC(=O)c1c(F)ccc(OCc2nc(-c3ccc(Cl)cc3)ns2)c1F [Example 1, 3-[3-(4-Chlorophenyl)-[1,2,4]thiadiazol-5-ylmethoxy]-2,6-difluorobenzamide] and NC(=O)c1c(F)ccc(OCc2nc(-c3ccc(O)cc3)ns2)c1F [Example 4, 2,6-Difluoro-3-[3-(4-hydroxyphenyl)-[1,2,4]thiadiazol-5-ylmethoxy]-benzamide] cannot be ordered by MIC: ≤ 1.12 µg/mL for the first, 0.25 to 4 µg/mL (≈ 0.688 to 11 µM) for the second.

COc1ccc(-c2nsc(COc3ccc(F)c(C(N)=O)c3F)n2)cc1 [Example 2, 2,6-Difluoro-3-[3-(4-methoxyphenyl)-[1,2,4]thiadiazol-5-ylmethoxy]-benzamide] and NC(=O)c1c(F)ccc(OCc2nc(-c3ccc(OC(F)(F)F)cc3)ns2)c1F [Example 3, 2,6-Difluoro-3-[3-(4-trifluoromethoxyphenyl)-[1,2,4]thiadiazol-5-ylmethoxy]-benzamide] cannot be ordered by MIC: ≤ 1.12 µg/mL for the first, ≤ 1.12 µg/mL for the second.

COc1cc(Cl)ccc1-c1nsc(COc2ccc(F)c(C(N)=O)c2F)n1 [Example 5, 3-((3-(4-chloro-2-methoxyphenyl)-1,2,4-thiadiazol-5-yl)methoxy)-2,6-difluorobenzamide] and NC(=O)c1c(F)ccc(OCc2nc(-c3ccc(Cl)cc3O)ns2)c1F [Example 7, 3-((3-(4-chloro-2-hydroxyphenyl)-1,2,4-thiadiazol-5-yl)methoxy)-2,6-difluorobenzamide] cannot be ordered by MIC: 0.25 to 4 µg/mL (≈ 0.607 to 9.71 µM) for the first, ≤ 1.12 µg/mL for the second.

Compound NC(=O)c1c(F)ccc(OCc2nc(-c3ccc(Cl)cc3OCc3ccccc3)ns2)c1F [Example 6, 3-((3-(2-(Benzyloxy)-4-chlorophenyl)-1,2,4-thiadiazol-5-yl)methoxy)-2,6-difluorobenzamide] has an MIC of 0.25 to 4 µg/mL (≈ 0.512 to 8.2 µM).
